From US8722658B2, “Azetidinyl diamides as monoacylglycerol lipase inhibitors” (Janssen Pharmaceutica, NV, priority 2009, dated 2014)

Tests used:
[1] = tested on: rat, CFA-induced thermal hypersensitivity; test: CFA-Induced Paw Radiant Heat Hypersensitivity; assay type: in vivo; settings: 30 mg/kg p.o., HPβCD, group mean values, last time point 180 or 300 min
Description: Each rat was placed in a test chamber on a warm glass surface and allowed to acclimate for approximately 10 min. A radiant thermal stimulus (beam of light) was then focused through the glass onto the plantar surface of each hind paw in turn. The thermal stimulus was automatically shut off by a photoelectric relay when the paw was moved or when the cut-off time was reached (20 sec for radiant heat at ˜5 amps). An initial (baseline) response latency to the thermal stimulus was recorded for each animal prior to the injection of complete Freund's adjuvant (CFA). 24 h following intraplantar CFA injection, the response latency of the animal to the thermal stimulus was then re-evaluated and compared to the animal's baseline response time. […] Post-compound treatment withdrawal latencies were assessed at fixed time intervals, typically 30, 60, 120, 180, and 300 min.
The percent reversal (% R) of hypersensitivity was calculated in one of two different ways: 1) using group mean values or 2) using individual animal values. […]
For all compounds, the % R of hypersensitivity was calculated using the mean value for groups of animals at each time point according to the following formula: % reversal=[(group treatment response−group CFA response)/(group baseline response−group CFA response)]×100 Results are given for the maximum % reversal observed for each compound at any time point tested. […]

[2] = molecular target: T1, mutant MGL (Homo sapiens, UniProt Q99685, L169S/L176S); test: MGL ThermoFluor Assay-Mutant; settings: read-out: MGL mutant ThermoFluor qKd (using qNMR conc.), compound concentration measured by qNMR
T1 sequence (Q99685 1-303 L169S/L176S): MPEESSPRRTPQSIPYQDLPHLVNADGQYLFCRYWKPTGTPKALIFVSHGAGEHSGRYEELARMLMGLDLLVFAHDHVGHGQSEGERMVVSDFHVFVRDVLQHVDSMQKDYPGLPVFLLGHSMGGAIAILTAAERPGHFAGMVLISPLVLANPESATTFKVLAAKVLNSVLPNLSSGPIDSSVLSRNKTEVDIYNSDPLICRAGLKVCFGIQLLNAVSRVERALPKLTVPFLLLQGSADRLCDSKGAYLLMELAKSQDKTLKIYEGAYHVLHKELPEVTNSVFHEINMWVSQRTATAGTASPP
Description: The ThermoFluor (TF) assay is a 384-well plate-based binding assay that measures thermal stability of proteins^1,2. […] TF dye used in all experiments was 1,8-ANS (Invitrogen: A-47). Final TF assay conditions used for MGL studies were 0.07 mg/ml of mutant MGL, 100 μM ANS, 200 mM NaCl, 0.001% Tween-20 in 50 mM PIPES (pH=7.0).
Screening compound plates contained 100% DMSO compound solutions at a single concentration. […] Columns 12 and 24 were used as DMSO reference and contained no compound. […] Following compound dispension, protein and dye solutions were added to achieve the final assay volume of 3 μL.
Bar-coded assay plates were robotically loaded onto a thermostatically controlled PCR-type thermal block and then heated from 40 to 90° C. degrees at a ramp-rate of 1° C./min for all experiments. Fluorescence was measured by continuous illumination with UV light (Hamamatsu LC6), supplied via fiber optics and filtered through a band-pass filter (380-400 nm; >6 OD cutoff). Fluorescence emission of the entire 384-well plate was detected by measuring light intensity using a CCD camera (Sensys, Roper Scientific) filtered to detect 500±25 nm, resulting in simultaneous and independent readings of all 384 wells. […]

SMILES	Method 1: peak % reversal [1]	Kd [2]
O=C(c1ccc(-c2cccc(C(F)(F)F)c2)c(Cl)c1)N1CC(N2CCN(C(=O)c3cscn3)CC2)C1 [Cpd 1102]	38%	
Cc1nc(C(=O)N2CCN(C3CN(C(=O)c4ccc(-c5cccc(C(F)(F)F)c5)cc4)C3)CC2)cs1 [Cpd 1217, 1-[(2-Methyl-l,3-thiazol-4-yl)carbonyl]-4-(1-{[3′-(trifluoromethyl)biphenyl-4-yl]carbonyl}azetidin-3-yl)piperazine]		104 nM
